US8455475B2 (Gruenenthal GmbH, priority 2009, dated 2013)
Structures can show the parent of a compound that is named as a salt.

Key:
[1] = molecular target: T1, human B1R (bradykinin receptor 1) (Homo sapiens, UniProt P46663); assay: FLIPR Ca2+ assay (Fluo-4) on CHO K1 cells stably transfected with the human B1R gene (hB1R cells): % inhibition at 10 μM / IC50, agonist Lys-Des-Arg9-bradykinin; type: cell-based; conditions: for inhibition at 10 µM: CHO-K1, human B1R
T1 construct: expressed in transfected cells; host or cells: CHO K1 cells
T1 sequence (P46663 1-353): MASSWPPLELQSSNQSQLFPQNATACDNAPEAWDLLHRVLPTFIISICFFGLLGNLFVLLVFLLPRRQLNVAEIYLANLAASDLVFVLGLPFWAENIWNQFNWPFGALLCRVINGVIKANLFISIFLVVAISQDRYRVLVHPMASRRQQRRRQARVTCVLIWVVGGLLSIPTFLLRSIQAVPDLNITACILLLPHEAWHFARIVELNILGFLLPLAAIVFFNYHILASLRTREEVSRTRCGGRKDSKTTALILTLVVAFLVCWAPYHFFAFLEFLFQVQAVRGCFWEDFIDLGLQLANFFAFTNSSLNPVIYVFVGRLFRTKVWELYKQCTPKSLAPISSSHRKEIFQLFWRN
Method in brief: (§1)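 Antagonism is measured as the drop in peak Fluo-4 Ca2+ signal when the EC80 agonist follows 10–20 min compound exposure. The single-point screen uses 10 μM; IC50 uses several concentrations. Values are given as % of maximal achievable inhibition.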

[2] = molecular target: T2, rat B1R (bradykinin receptor 1) (Rattus norvegicus, UniProt P97583); assay: FLIPR Ca2+ assay (Fluo-4) on CHO K1 cells stably transfected with the B1R gene of the rat (rB1R cells): % inhibition at 10 μM / IC50, agonist Des-Arg9-bradykinin; type: cell-based; conditions: for inhibition at 10 µM: CHO-K1, rat B1R
T2 construct: expressed in transfected cells; host or cells: CHO K1 cells
T2 sequence (P97583 1-337): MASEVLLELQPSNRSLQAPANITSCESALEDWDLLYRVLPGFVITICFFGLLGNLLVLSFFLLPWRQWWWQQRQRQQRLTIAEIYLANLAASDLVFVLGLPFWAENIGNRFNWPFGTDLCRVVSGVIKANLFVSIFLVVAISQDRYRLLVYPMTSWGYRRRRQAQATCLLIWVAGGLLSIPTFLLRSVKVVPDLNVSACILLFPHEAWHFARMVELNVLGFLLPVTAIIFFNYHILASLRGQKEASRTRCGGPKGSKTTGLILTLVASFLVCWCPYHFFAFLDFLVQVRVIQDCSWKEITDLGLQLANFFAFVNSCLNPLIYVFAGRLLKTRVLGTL
Method in brief: as §1

| inhibition at 10 µM [1] [%] | inhibition at 10 µM [2] [%] | Compound | % Inhibition (human B1R) at 10 μM ([1]; human B1R) [%] | % Inhibition (rat B1R) at 10 μM ([2]; rat B1R) [%] |
| --- | --- | --- | --- | --- |
| 98 | 106 | O=C(NC1CCc2ccc(C(=O)N3CCC4(CC3)CCN(c3ccncc3)CC4)cc21)c1cccc(Cl)c1Cl (stereo not shown) [IND_CC-266, 2,3-Dichloro-N-[6-(9-pyridin-4-yl-3,9-diazaspiro[5.5]undecane-3-carbonyl)-2,3-dihydro-1H-inden-1-yl]-benzamide] |  |  |
| 7 | 100 | O=C(NC1CCc2ccc(C(=O)N3CCC4(CCN(Cc5ccc(F)cc5Cl)CC4)C3)cc21)c1ccccc1Cl (stereo not shown) [IND_CC-556, 2-Chloro-N-[6-[8-[(2-chloro-4-fluoro-phenyl)-methyl]-2,8-diazaspiro[4.5]decane-2-carbonyl]-2,3-dihydro-1H-inden-1-yl]-benzamide] |  |  |
| 71 | 99 | O=C(NC1CCc2ccc(C(=O)N3CCC4(CC3)CCN(c3ccncc3)C4)cc21)C(c1ccccc1)c1ccccc1Cl (stereo not shown) [Ind_CC-051, 2-(2-chlorophenyl)-2-phenyl-N-[6-(2-pyridin-4-yl-2,8-diazaspiro[4.5]decane-8-carbonyl)-2,3-dihydro-1H-inden-1-yl]-acetamide] |  |  |
| 94 | 68 | COc1ccc2cc(C(=O)N[C@@H]3CCc4ccc(C(=O)N5CCC6(CCN(c7ccncc7)CC6)C5)cc43)ccc2c1 [Example H-56, 6-Methoxy-N-[(1R)-6-(8-pyridin-4-yl-3,8-diazaspiro[4.5]decane-3-carbonyl)-2,3-dihydro-1H-inden-1-yl]-naphthalene-2-carboxylic acid amide] |  |  |
| 99 | 105 | O=C(N[C@@H]1CCc2cc(C(=O)N3CCC4(CC3)CCN(c3ccncc3)CC4)ccc21)c1ccccc1Cl [Example H-172, 2-chloro-N-[(1R)-5-(9-pyridin-4-yl-3,9-diazaspiro[5.5]undecane-3-carbonyl)-2,3-dihydro-1H-inden-1-yl]-benzamide] |  |  |
| 86 | 103 | CN(C(=O)c1cc(C(F)(F)F)ccc1Cl)C1CCc2ccc(C(=O)N3CCC4(CC3)CCN(c3ccncc3)CC4)cc21 (stereo not shown) [IND_CC-202, 2-Chloro-N-methyl-N-[6-(9-pyridin-4-yl-3,9-diazaspiro[5.5]undecane-3-carbonyl)-2,3-dihydro-1H-inden-1-yl]-5-(trifluoromethyl)-benzamide] |  |  |
| 57 | 105 | O=C(N[C@@H]1CCCc2ccc(C(=O)N3CCC4(CCCN(c5ccncc5)C4)CC3)cc21)c1ccccc1Cl [Example H-80] |  |  |
|  |  | 2-Chloro-N-[2,2-dimethyl-6-(9-pyridin-4-yl-3,9-diazaspiro[5.5]undecane-3-carbonyl)-1,3-dihydro-inden-1-yl]-3-(trifluoromethyl)-benzamide [IND_CC-234] | 85 | 99 |
| 99 | 105 | CC1(C)Cc2ccc(C(=O)N3CCC4(CC3)CCN(c3ccncc3)CC4)cc2C1NC(=O)c1c(Cl)cccc1Cl (stereo not shown) [IND_CC-287, 2,6-Dichloro-N-[2,2-dimethyl-6-(9-pyridin-4-yl-3,9-diazaspiro[5.5]undecane-3-carbonyl)-1,3-dihydro-inden-1-yl]-benzamide] |  |  |
| 100 | 107 | O=C(NC1CCc2ccc(C(=O)N3CCC4(CC3)CCN(c3ccncc3)CC4)cc21)c1c(Cl)cccc1Cl (stereo not shown) [IND_CC-269, 2,6-Dichloro-N-[6-(9-pyridin-4-yl-3,9-diazaspiro[5.5]undecane-3-carbonyl)-2,3-dihydro-1H-inden-1-yl]-benzamide] |  |  |
| 71 | 103 | CN(C(=O)c1cccc(C(F)(F)F)c1Cl)C1CCc2ccc(C(=O)N3CCC4(CC3)CCN(c3ccncc3)CC4)cc21 (stereo not shown) [IND_CC-225, 2-Chloro-N-methyl-N-[6-(9-pyridin-4-yl-3,9-diazaspiro[5.5]undecane-3-carbonyl)-2,3-dihydro-1H-inden-1-yl]-3-(trifluoromethyl)-benzamide] |  |  |
| 49 | 104 | Cc1ccc(C(=O)N(C)C2CCc3ccc(C(=O)N4CCC5(CC4)CCN(c4ccncc4)CC5)cc32)c(F)c1 (stereo not shown) [IND_CC-304, 2-Fluoro-N,4-dimethyl-N-[6-(9-pyridin-4-yl-3,9-diazaspiro[5.5]undecane-3-carbonyl)-2,3-dihydro-1H-inden-1-yl]-benzamide] |  |  |
| 100 | 103 | CC1(C)CC(NC(=O)NCc2ccccc2Cl)c2cc(C(=O)N3CCC4(CC3)CCN(c3ccncc3)CC4)ccc21 (stereo not shown) [Ind_CC-061, 1-[(2-chlorophenyl)-methyl]-3-[3,3-dimethyl-6-(9-pyridin-4-yl-3,9-diazaspiro[5.5]undecane-3-carbonyl)-1,2-dihydro-inden-1-yl]-urea] |  |  |
| 100 | 102 | O=C(NC1CCc2ccc(C(=O)N3CCC4(CC3)CCN(c3ccncc3)C4)cc21)c1ccccc1Cl (stereo not shown) [Ind_CC-101, 2-chloro-N-[6-(2-pyridin-4-yl-2,8-diazaspiro[4.5]decane-8-carbonyl)-2,3-dihydro-1H-inden-1-yl]-benzamide] |  |  |
| 100 | 104 | O=C(N[C@@H]1CCc2ccc(C(=O)N3CCC4(CC3)CCN(c3ccncc3)C4)cc21)c1ccccc1Cl [Example H-91, 2-Chloro-N-[(1R)-6-(3-pyridin-4-yl-3,8-diazaspiro[4.5]decane-8-carbonyl)-2,3-dihydro-1H-inden-1-yl]-benzamide] |  |  |
| 99 | 106 | COc1cc(C)c(C(=O)N[C@@H]2CCc3ccc(C(=O)N4CCC5(CCN(c6ccncc6)CC5)C4)cc32)cc1C [Example H-103, 4-Methoxy-2,5-dimethyl-N-[(1R)-6-(8-pyridin-4-yl-3,8-diazaspiro[4.5]decane-3-carbonyl)-2,3-dihydro-1H-inden-1-yl]-benzamide] |  |  |
| 100 | 102 | Cc1cc(N2CCC3(CCN(C(=O)c4ccc5c(c4)[C@H](NC(=O)c4ccccc4Cl)CC5)C3)CC2)cc(C)n1 [Example H-111, 2-Chloro-N-[(1R)-6-[8-(2,6-dimethyl-pyridin-4-yl)-3,8-diazaspiro[4.5]decane-3-carbonyl]-2,3-dihydro-1H-inden-1-yl]-benzamide hydrochloride] |  |  |
| 101 | 108 | O=C(N[C@@H]1CCc2ccc(C(=O)N3CCC4(CCN(c5ccncc5)CC4)C3)cc21)c1c(F)cccc1C(F)(F)F [Example H-110, 2-Fluoro-N-[(1R)-6-(8-pyridin-4-yl-3,8-diazaspiro[4.5]decane-3-carbonyl)-2,3-dihydro-1H-inden-1-yl]-6-(trifluoromethyl)-benzamide] |  |  |
| 69 | 107 | CC1(C)Cc2ccc(C(=O)N3CCC4(CC3)CCN(c3ccncc3)CC4)cc2C1NC(=O)c1cccc(Cl)c1Cl (stereo not shown) [IND_CC-282, 2,3-Dichloro-N-[2,2-dimethyl-6-(9-pyridin-4-yl-3,9-diazaspiro[5.5]undecane-3-carbonyl)-1,3-dihydro-inden-1-yl]-benzamide] |  |  |

| Compound | inhibition at 10 µM [1] [%] | inhibition at 10 µM [2] [%] | % Inhibition (human B1R) at 10 μM ([1]; human B1R) [%] | % Inhibition (rat B1R) at 10 μM ([2]; rat B1R) [%] |
| --- | --- | --- | --- | --- |
| CN(C)C1(c2ccc(F)cc2)CCC2(CCN(C(=O)c3ccc4c(c3)C(N(C(=O)c3ccccc3Cl)C3CC3)CC4)CC2)CC1 (stereo not shown) [Ind_CC-117, 2-chloro-N-cyclopropyl-N-[6-[9-dimethylamino-9-(4-fluorophenyl)-3-azaspiro[5.5]undecane-3-carbonyl]-2,3-dihydro-1H-inden-1-yl]-benzamide] | 56 | 77 |  |  |
